Data from ChEMBL document CHEMBL1201862, “PubChem BioAssay data set” (2004).
Active and inactive are the calls of the source.

Assays:
[1] = biological target: Eukaryotic translation initiation factor 4E (Mus musculus, UniProt P63073); test: blockers of eIF4G binding by eIF4E – biochemical, TR-FRET, dose response (AID 855); assay type: functional;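 note: potency for disrupting eIF4E binding to eIF4GI seen as loss of FRET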
[2] = viability of uninfected HEp-2 cells – cell-based, HTS, cytotoxicity control for RSV inhibitor project, dose response (AID 2410); assay type: functional; details: human respiratory syncytial virus
[3] = cells
[4] = biological target: T1, Aminopeptidase N (Plasmodium falciparum FcB1/Columbia, UniProt O96935); test: malaria alanyl aminopeptidase activity blockers – biochemical, fluorogenic H-Leu-NHMec substrate, 1536-well (AID 1445); parameters: species or system Plasmodium falciparum 3D7, 3D7
T1 sequence (O96935 whole entry): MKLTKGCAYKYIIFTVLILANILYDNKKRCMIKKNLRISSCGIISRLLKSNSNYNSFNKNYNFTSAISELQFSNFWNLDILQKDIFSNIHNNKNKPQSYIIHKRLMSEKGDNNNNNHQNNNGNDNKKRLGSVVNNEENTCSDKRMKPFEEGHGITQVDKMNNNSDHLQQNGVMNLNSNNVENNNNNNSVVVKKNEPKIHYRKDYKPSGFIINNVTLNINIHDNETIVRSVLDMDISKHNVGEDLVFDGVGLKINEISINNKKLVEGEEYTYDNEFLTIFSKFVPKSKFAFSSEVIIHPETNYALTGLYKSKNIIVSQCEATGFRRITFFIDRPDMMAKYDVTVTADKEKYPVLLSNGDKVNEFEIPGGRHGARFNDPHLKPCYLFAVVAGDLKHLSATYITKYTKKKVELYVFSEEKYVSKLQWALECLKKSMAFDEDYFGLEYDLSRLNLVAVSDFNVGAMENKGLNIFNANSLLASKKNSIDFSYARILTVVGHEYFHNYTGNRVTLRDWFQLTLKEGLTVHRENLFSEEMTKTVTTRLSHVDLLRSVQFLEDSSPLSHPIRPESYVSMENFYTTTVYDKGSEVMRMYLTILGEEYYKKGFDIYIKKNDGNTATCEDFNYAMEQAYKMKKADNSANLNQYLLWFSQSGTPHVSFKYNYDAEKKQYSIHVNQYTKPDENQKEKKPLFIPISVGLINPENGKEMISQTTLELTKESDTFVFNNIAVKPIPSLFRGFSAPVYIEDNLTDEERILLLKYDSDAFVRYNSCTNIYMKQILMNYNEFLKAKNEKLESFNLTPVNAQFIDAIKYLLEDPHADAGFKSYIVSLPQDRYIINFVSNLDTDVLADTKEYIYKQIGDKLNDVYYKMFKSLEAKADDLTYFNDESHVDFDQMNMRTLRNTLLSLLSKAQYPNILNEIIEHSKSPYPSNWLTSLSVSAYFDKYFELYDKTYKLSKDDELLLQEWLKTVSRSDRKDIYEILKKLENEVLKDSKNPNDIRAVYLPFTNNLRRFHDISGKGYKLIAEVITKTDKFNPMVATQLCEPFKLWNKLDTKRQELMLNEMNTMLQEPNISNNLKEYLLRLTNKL

[5] = biological target: Nonstructural protein 1 (Influenza A virus, UniProt Q194T2); assay type: functional, Influenza A virus (A/California/07/2009(H1N1))
Chain of Nonstructural protein 1 (Q194T2 whole entry): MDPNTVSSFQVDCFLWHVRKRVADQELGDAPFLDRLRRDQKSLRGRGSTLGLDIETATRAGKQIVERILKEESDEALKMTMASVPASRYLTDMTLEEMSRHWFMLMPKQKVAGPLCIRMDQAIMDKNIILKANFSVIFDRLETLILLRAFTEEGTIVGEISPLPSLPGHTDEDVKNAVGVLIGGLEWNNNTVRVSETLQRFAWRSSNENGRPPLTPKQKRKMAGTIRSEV

[6] = microbe, parasite or virus in culture; assay type: functional; details: Mycobacterium tuberculosis
[7] = system: Streptococcus sp. 'group A'; test: Streptococcus pyogenes SK(-)GAS viability under kanamycin – luminescence, BacTiterGlo, confirmation, counter-screen for streptokinase expression inhibitor project, dose response (AID 1900); assay type: functional, organism-based
[8] = system: Streptococcus; test: GAS UMAA2166 growth inhibition – luminescence, BacTiterGlo, counter-screen for streptokinase expression inhibitor project, dose response (AID 1915); assay type: functional, organism-based;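 note: potency for reduction of bacterial viability or growth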
[9] = biological target: T2, Streptokinase A (Streptococcus pyogenes serotype M1, UniProt P10520); test: viability-normalized secreted streptokinase activity reduction – plasminogen activation absorbance, OD405, dose response (AID 1914); assay type: functional, Streptococcus pyogenes M1 GAS;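 note: secreted streptokinase activity via plasminogen activation per viability signal from cell pellet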
T2 sequence (P10520 whole entry): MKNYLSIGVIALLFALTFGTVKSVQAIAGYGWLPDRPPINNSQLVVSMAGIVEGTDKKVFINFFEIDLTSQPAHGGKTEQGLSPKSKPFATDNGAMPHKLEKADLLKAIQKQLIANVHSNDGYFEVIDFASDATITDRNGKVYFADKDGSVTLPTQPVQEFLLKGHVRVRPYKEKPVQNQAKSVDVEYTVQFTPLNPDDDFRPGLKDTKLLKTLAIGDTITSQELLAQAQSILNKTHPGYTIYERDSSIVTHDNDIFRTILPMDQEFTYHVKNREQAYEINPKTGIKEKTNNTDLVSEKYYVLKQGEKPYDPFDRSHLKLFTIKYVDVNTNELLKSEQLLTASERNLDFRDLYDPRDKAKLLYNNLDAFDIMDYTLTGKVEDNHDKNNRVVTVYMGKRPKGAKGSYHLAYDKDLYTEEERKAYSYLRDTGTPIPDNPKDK

[10] = biological target: Induced myeloid leukemia cell differentiation protein Mcl-1 (Homo sapiens, UniProt Q07820); assay type: functional
Chain of Induced myeloid leukemia cell differentiation protein Mcl-1 (Q07820 whole entry): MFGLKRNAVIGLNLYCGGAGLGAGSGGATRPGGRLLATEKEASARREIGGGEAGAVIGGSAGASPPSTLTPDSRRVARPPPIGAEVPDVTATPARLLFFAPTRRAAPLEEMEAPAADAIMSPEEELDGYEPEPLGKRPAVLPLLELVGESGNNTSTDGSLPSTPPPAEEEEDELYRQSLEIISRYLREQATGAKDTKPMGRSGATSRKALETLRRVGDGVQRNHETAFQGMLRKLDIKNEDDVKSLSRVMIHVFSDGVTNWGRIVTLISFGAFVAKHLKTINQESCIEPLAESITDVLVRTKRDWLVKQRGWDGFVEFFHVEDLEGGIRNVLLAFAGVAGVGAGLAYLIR

[11] = biological target: T3, Fatty acid synthase (Homo sapiens, UniProt P49327); test: inhibition of human FAS-TE enzyme activity – biochemical, endpoint fluorescence intensity, uHTS hits, dose response (AID 624327); assay type: functional;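 note: fluorescence from hydrolysis of an O-methyl fluorescein acyl ester substrate by the enzyme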
T3 sequence (P49327 whole entry): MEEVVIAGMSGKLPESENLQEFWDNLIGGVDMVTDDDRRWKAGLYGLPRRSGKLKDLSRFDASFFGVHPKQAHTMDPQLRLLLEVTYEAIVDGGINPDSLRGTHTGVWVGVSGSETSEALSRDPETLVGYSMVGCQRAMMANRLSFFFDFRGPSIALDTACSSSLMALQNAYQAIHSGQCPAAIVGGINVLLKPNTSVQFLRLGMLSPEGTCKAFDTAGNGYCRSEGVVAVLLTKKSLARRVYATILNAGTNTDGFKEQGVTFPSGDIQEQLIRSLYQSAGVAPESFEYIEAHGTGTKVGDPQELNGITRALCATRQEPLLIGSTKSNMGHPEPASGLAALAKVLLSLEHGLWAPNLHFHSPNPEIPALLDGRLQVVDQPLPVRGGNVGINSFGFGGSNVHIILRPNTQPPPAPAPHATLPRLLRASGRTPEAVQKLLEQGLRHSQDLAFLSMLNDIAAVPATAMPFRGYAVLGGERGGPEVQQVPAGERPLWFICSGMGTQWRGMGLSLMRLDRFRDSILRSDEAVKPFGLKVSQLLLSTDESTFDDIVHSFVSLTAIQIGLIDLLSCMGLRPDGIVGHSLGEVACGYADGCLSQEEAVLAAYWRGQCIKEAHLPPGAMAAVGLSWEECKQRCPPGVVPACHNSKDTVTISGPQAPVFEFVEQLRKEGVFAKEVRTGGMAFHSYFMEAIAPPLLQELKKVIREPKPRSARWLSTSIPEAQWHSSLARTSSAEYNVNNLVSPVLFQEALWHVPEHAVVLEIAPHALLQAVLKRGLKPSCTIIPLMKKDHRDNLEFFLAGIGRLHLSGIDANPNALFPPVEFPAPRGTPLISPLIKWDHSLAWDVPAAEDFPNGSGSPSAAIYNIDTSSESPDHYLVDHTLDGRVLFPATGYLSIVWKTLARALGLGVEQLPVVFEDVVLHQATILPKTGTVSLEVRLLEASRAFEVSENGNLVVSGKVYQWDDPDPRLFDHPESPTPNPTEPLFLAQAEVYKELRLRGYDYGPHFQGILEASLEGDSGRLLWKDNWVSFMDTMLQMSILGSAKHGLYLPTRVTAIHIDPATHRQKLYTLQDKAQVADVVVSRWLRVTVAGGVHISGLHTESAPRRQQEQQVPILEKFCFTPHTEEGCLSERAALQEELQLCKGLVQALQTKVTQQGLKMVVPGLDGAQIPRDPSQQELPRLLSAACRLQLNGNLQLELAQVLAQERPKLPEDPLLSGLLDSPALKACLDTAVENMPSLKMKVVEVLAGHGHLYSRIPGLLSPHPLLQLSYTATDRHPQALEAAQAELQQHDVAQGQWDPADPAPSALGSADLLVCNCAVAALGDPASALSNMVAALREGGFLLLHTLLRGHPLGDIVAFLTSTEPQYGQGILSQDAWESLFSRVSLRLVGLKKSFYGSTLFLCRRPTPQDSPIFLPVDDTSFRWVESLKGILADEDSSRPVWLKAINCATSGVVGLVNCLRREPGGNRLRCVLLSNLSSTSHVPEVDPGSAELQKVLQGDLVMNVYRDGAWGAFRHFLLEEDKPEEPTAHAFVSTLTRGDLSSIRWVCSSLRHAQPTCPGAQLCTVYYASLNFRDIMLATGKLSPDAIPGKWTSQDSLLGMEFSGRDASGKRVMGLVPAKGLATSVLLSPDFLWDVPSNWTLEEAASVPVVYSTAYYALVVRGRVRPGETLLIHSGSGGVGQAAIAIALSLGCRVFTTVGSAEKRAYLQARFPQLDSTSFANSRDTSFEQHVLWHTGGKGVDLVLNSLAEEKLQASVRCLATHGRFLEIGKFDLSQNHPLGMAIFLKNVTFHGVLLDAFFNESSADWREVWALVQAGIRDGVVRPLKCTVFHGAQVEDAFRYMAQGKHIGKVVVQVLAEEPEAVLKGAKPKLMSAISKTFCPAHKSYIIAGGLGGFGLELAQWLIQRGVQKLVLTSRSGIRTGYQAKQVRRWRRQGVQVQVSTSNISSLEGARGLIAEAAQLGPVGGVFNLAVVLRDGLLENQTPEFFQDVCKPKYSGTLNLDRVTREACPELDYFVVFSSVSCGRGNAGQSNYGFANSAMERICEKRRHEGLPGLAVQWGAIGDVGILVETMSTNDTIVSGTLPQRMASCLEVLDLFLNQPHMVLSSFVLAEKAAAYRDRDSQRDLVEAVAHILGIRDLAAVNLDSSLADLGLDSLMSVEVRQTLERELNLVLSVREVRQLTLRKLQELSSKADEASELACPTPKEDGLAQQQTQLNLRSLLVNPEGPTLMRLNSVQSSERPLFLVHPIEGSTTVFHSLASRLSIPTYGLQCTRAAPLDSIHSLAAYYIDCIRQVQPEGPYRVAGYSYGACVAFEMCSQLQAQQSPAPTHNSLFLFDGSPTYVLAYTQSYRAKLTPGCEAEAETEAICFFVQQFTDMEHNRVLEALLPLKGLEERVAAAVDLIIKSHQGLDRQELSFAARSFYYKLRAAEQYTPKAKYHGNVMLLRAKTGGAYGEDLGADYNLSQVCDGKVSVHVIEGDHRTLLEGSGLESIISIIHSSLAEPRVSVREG

[12] = biological target: T3, Fatty acid synthase; test: inhibition of human FAS-TE enzyme activity – biochemical, kinetic fluorescence intensity, dose response (AID 624326); assay type: functional;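 note: rate of fluorescence rise from hydrolysis of a fluorogenic O-methyl fluorescein ester substrate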
[13] = biological target: T4, Protein RecA (Mycobacterium tuberculosis, UniProt P9WHJ3); test: Fluorescence Cell-Free Homogeneous Dose Retest to Identify Inhibitors of RecA-Intein Splicing Activity. [Related pubchem assays (depositor defined):AID2097, AID2223, AID489010, AID492950]; assay type: functional
T4 sequence (P9WHJ3 whole entry): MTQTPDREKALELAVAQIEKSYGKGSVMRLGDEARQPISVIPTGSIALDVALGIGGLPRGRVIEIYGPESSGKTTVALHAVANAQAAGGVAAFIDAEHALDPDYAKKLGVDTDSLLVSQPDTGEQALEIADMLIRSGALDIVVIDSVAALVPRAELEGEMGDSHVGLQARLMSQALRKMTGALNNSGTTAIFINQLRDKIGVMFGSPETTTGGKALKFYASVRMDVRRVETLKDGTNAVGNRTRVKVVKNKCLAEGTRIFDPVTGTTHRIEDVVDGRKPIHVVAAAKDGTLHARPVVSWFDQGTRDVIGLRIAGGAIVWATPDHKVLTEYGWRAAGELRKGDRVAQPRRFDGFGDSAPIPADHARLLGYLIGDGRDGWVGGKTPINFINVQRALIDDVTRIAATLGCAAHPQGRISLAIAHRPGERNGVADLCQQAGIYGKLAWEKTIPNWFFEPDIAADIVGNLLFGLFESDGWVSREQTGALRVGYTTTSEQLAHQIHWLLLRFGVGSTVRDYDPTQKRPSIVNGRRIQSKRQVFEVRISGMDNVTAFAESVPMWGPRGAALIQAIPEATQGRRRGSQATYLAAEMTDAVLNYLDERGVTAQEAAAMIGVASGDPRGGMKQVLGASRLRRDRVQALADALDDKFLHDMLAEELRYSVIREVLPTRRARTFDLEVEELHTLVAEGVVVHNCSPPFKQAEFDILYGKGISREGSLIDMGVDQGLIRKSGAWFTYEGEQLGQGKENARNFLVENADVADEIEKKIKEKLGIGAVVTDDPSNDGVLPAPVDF

[14] = biological target: Genome polyprotein (dengue virus type 2, UniProt P29990); test: flavivirus cap methylation enzyme inhibition – biochemical, confirmation dose response, primary screen (AID 588689); assay type: functional
Chain of Genome polyprotein (P29990 2492-3391 limits assumed): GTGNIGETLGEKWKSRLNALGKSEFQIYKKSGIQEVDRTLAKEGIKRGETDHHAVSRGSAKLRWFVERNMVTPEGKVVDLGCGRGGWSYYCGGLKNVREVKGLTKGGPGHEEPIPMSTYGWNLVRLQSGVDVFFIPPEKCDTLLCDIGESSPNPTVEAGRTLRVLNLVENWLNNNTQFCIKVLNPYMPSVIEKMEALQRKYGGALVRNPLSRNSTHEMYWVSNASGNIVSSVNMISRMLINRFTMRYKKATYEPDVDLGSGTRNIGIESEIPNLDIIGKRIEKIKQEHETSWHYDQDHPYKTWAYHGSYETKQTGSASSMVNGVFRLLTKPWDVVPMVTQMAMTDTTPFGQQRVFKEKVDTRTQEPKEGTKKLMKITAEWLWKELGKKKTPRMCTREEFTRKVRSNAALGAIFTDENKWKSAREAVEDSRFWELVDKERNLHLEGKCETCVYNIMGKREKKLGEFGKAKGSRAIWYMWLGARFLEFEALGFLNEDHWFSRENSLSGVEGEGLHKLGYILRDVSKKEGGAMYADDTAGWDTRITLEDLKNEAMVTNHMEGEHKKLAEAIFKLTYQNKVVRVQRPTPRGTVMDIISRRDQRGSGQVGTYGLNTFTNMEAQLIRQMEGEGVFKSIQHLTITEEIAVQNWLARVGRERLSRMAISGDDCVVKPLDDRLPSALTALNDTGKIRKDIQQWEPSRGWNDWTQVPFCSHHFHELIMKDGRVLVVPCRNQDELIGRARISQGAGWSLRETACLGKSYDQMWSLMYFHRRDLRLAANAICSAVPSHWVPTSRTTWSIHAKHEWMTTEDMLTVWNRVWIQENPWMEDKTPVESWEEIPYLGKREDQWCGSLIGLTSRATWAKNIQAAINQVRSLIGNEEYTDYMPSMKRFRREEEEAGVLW

[15] = biological target: T5, Leucine aminopeptidase (Plasmodium falciparum 3D7, UniProt Q8IL11); test: P. falciparum M17LAP inhibitors, primary screen, biochemical, fluorogenic H-Leu-NHMec substrate, 1536-well (AID 1619); assay type: functional
T5 sequence (Q8IL11 whole entry): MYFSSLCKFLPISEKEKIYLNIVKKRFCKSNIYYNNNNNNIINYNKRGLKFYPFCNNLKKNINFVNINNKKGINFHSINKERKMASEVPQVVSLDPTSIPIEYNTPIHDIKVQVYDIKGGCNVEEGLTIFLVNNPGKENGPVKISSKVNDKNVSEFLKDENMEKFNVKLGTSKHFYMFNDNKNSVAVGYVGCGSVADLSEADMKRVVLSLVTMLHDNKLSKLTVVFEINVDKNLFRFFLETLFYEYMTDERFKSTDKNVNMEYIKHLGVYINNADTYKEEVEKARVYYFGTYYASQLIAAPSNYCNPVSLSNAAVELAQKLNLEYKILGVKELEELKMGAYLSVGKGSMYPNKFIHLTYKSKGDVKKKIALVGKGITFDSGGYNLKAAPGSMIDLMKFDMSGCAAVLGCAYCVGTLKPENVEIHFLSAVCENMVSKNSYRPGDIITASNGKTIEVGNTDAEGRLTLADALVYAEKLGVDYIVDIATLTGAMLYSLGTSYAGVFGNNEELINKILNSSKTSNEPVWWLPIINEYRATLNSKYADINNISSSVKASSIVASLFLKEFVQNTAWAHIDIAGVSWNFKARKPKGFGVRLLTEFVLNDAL

[16] = biological target: T6, Replicative DNA helicase DnaB (Mycobacterium tuberculosis, UniProt P9WMR3); test: DnaB intein splicing inhibitors, dose response, biochemical, cell-free fluorescence (AID 449749); assay type: functional
T6 sequence (P9WMR3 whole entry): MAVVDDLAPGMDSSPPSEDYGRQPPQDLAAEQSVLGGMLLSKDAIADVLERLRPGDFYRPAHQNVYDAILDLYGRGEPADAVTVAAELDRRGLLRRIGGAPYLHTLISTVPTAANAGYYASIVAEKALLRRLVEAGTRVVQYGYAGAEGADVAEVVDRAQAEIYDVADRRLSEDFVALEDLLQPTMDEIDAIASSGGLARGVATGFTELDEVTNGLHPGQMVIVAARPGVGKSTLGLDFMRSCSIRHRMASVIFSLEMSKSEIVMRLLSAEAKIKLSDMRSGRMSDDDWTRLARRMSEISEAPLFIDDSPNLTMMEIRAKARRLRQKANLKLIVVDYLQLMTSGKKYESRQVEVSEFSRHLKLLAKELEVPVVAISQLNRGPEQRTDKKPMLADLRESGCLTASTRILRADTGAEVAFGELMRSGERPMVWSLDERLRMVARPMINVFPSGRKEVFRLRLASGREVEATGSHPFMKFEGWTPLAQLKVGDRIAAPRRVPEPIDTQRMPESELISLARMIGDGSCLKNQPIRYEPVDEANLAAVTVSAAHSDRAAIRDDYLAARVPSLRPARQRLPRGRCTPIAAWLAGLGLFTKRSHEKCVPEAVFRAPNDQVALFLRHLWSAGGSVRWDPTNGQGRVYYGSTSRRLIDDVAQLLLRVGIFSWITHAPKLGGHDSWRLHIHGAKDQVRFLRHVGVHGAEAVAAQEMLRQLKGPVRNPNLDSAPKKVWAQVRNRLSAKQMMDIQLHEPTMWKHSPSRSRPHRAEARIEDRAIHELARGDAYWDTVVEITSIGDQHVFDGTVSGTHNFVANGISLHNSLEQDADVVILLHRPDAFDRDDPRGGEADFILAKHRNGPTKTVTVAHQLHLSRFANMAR

Chain of Eukaryotic translation initiation factor 4E (P63073 whole entry): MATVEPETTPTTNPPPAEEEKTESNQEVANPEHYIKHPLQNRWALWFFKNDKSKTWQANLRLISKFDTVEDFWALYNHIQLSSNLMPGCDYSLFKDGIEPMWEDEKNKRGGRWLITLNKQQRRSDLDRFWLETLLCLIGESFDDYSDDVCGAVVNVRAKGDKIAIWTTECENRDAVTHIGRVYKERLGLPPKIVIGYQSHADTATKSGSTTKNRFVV

Cc1ccc(S(=O)(=O)N2CCN(C(C)C(=O)Nc3ccccc3-c3ccccc3)CC2)cc1 (stereo not drawn)
IC50 [1]: > 64 µM (inactive)

COc1ccccc1NC(=O)Nc1nn(C)c2cccc(OC)c12
CC50 [2]: 41.1 µM (active)
IC50 [3]: 41.2 µM (active)

CCCOc1ccc(N2C(=O)CC(N(Cc3ccc(OC)cc3)C(S)=Nc3ccccc3)C2=O)cc1 (stereo not drawn)
CC50 [2]: > 50 µM (active)
IC50 [3]: 7.34 µM (active)

Cc1ccc(O)c(NC(=S)NC(=O)Cc2ccc(Cl)cc2)c1
CC50 [2]: 29.4 µM (active)
IC50 [3]: 23.4 µM (active)

COc1ccc(C(C)=O)cc1CSc1nc2cc(C(=O)O)ccc2c(=O)n1Cc1ccccc1
IC50 [4]: 83.5 µM (active)

C#CCCOC(=O)N1C2=NC(C(=O)OC)=C(C(=O)OC)[C@@H]3N(CC=C)c4ccccc4[C@]23C[C@H]1C(=O)OC
IC50 [4]: 58.5 µM (active)

Cc1ccc(S(=O)(=O)N(C)CCCC(=O)Nc2cc(C)ccc2C)cc1
IC50 [5]: 22.9 µM (active)

Cc1nn(-c2ccccc2)c2c1C(c1ccc([N+](=O)[O-])cc1)N1C(=N2)C(=O)Nc2ccccc21 (stereo not drawn)
CC50 [2]: 34.8 µM (active)
IC50 [3]: 31.5 µM (active)
CC50 [6]: 39.3 µM (active)

Oc1c(C(c2cccs2)N2CCN(c3ccccc3)CC2)ccc2cccnc12 (stereo not drawn)
IC50 [1]: > 64 µM (inactive)

COc1ccc(OCC(=O)N2CC3(C)CC2CC(C)(C)C3)cc1 (stereo not drawn)
IC50 [1]: > 64 µM (inactive)

CC(=O)C1=C(C)NC(SCc2ccc(C#N)cc2)=C(C#N)C1c1ccco1 (stereo not drawn)
IC50 [1]: > 64 µM (inactive)

CC1(C)Oc2ccc3ccc(=O)oc3c2C(/C=N/NC(N)=S)=C1O
EC50 [7]: 3.2 µM (active)
EC50 [8]: 22.8 µM (active)
IC50 [5]: 26.6 µM (active)
EC50 [9]: > 150 µM (not active)

COc1cc(/C=N/NC(=O)C(Cc2c[nH]c3ccccc23)NC(=O)OCc2ccccc2)cc([N+](=O)[O-])c1O (stereo not drawn)
IC50 [10]: 6.11 µM (active)
IC50 [4]: 4.75 µM (active)
IC50 [11]: 5.95 µM (active)
IC50 [12]: 8.12 µM (active)

Cc1ccc(-c2ccc(/C=N/NC3=NC(=O)C(CC(=O)O)S3)o2)c([N+](=O)[O-])c1 (stereo not drawn)
EC50 [13]: 10.5 µM (active)
IC50 [14]: 88.6 µM (active)
IC50 [15]: 101 µM (active)
AC50 [16]: 26.5 µM (active)
